How the values were obtained:
[1] = Bioavailability (tests not described); format: in vivo; conditions: salt forms
[2] = Storage properties (standard tests, not described); format: physicochemical; conditions: salt forms
[3] = test system: dengue virus serotype 2 strain New Guinea C; experiment: Cell-based flavivirus immunodetection (CFI) assay; conditions: for EC50: Dengue virus, A549, read-out: EC50 in the CFI assay for dengue virus
Description: (§1) The CFI assay is based on quantitative immunodetection of the viral envelope protein, E, as a readout for viral load in target cells. In the CFI assay, the compounds of the invention show activity against dengue virus (e.g. dengue virus serotype 2). […] The HCV replicon contains an inserted firefly luciferase construct in its sequence. The genome of the HCV replicon is maintained as RNA species in a Huh-7 cell line (Krieger et al. Journal of Virology 2001; 75(10):4614-24). Measurement of luciferase activity is used as a surrogate marker for viremia in target cells.
50% effective concentration (EC50), is the concentration of the test compound that decreases the signal generated by the virus by 50%. It is calculated using nonlinear regression analysis using the variable slope sigmoidal dose-response curve, with commercial software such as Prism or ActivityBase.
A549 cells (e.g. available from ATCC #CCL-185) are trypsinized, counted and diluted to 2×10^5 cells/ml in Hams F-12 media supplemented with 2% fetal bovine serum and 1% penicillin/streptomycin. 2×10^4 cells are dispensed in clear 96-well tissue culture plate per well and placed at 37° C., 5% CO2 overnight. On the next day, the cells are infected with virus (dengue serotype 2, NGC strain, e.g. available from ATCC #VR-1584) at multiplicity of infection (MOI) of 0.3 in the presence of varied concentrations of test compounds for 1 hour at 37° C. and 5% CO2 in the same media. The medium containing virus and the compounds is removed, replaced with fresh medium containing only the test compounds and incubated at 37° C., 5% CO2 for another 48 hours. The cells are washed once with PBS and fixed with cold methanol for 10 min. After washing twice with PBS, the fixed cells are blocked with PBS containing 1% FBS and 0.05% Tween-20 for 1 hour at room temperature. The primary antibody solution (4G2) is then added at a concentration of 1:20 to 1:100 in PBS containing 1% FBS and 0.05% Tween-20 for 3 hours. The cells are then washed three times with PBS followed by one hour incubation with horseradish peroxidase (HRP)-conjugated anti-mouse IgG (Sigma, 1:2000 dilution). After washing three times with PBS, 50 μL of 3,3′,5,5′-tetramethylbenzidine (TMB) substrate solution (Sigma) is added to each well for two minutes. The reaction is stopped by addition 0.5M sulfuric acid. The plates are read at 450 nm absorbance for viral load quantification. After measurement, the cells are washed three times with PBS, followed by incubation with propidium iodide for 5 min. The plate is read in a Tecan Safire plate reader (excitation 537 nm, emission 617 nm) for cell number quantification. Dose response curves are plotted from the mean absorbance versus the log of the concentration of test compounds. The EC50 is calculated by nonlinear regression analysis. A positive control may be used, such as, for example, (2R,3R,4R,5R)-2-(4-amino-pyrrolo[2,3-d]pyrimidin-7-yl)-3-ethynyl-5-hydroxymethyl-tetrahydrofuran-3,4-diol.

HCV replicon = experiment: Cell-based HCV replicon assay (Huh-luc/neo-ET, luciferase); design: species or system Hepatitis C virus; conditions: for EC50: Hepatitis C virus, Huh-7 cell line, luciferase readout
Description: as §1
HVC replicon-containing cells, Huh-luc/neo-ET (e.g. as described in Krieger et al., Journal of Virology, 2001; 75(10):4614-24), are maintained in DMEM medium containing 2 mM […], 0.1 mM non-essential amino acid solution, 10% heat-inactivated fetal bovine serum and […] Geneticin®, G418 sulfate solution. The cells are kept between 20 to 80% confluency and are trypsinized with trypsin (0.05%)/EDTA solution. After trypsinization, cells are resuspended in supplemented DMEM phenol red-free medium (DMEM phenol red free supplemented with 2 mM L-glutamine, 0.1 mM non-essential amino acid solution, 10% of heat-inactivated fetal bovine serum and 1 mM sodium pyruvate) and pelleted by centrifugation at 420 g for 5 min. Cell density is calculated and diluted to 1×10^5 cells/mL with phenol red-free medium.
Two sets of plates are prepared, a white opaque 96-well plate for the luciferase reading and a 96-well clear plate for cytotoxicity measurement. Each well is seeded with 10,000 cells/well and incubated overnight at 37° C., 5% CO2. After incubation, the medium is aspirated and phenol red free medium supplemented with various concentrations of compounds is added and the plates further incubated for at 37° C., 5% CO2 for another 48 hours. A positive control may be used, such as, for example, (2R,3R,4R,5R)-2-(4-amino-pyrrolo[2,3-d]pyrimidin-7-yl)-3-ethynyl-5-hydroxymethyl-tetrahydrofuran-3,4-diol.
For determination of luciferase activity, the plates are removed from the incubator to allow them to equilibrate to room temperature for 30 minutes and luciferase activity is measured after the addition of 100 μL of the Britelite® (PerKin Elmer) prepared according to manufacturer's instructions.

TSV01 dengue virus 2 = experiment: Mouse model of dengue virus infection (viremia by plaque assay); format: in vivo, AG129 mice
Description: The compounds of the invention also show activity in vivo in a mouse model of dengue infection (Schul et al. Journal of Infectious Diseases 2007; 195:665-74). Briefly, AG129 mice (B&K Universal Ltd, Hull, UK) are housed in individually ventilated cages (TechniPlast, Italy) and used between 6 and 10 weeks of age. Mice are injected intraperitoneally with 0.6 ml TSV01 dengue virus 2 suspension. Blood samples are taken by retro orbital puncture under isoflurane anaesthesia. Blood samples are collected in tubes containing sodium citrate to a final concentration of 0.4%, and immediately centrifuged for 3 minutes at 6000 g to obtain plasma. 20 μL of plasma is diluted in 780 μL RPMI1640 medium and snap frozen in liquid nitrogen for plaque assay analysis. Remaining plasma is used for cytokine and NS1 protein level determination. Mice develop dengue viremia rising over several days, peaking on day 3 post-infection.
For testing of antiviral activity, a compound of the invention is dissolved in vehicle fluid, e.g. 10% ethanol, 30% PEG 300 and 60% D5W (5% dextrose in water); or 6N HCl (1.5 eq): 1N
NaOH (pH adjusted to 3.5): 100 mM citrate buffer pH 3.5 (0.9% v/v: 2.5% v/v: 96.6% v/v). Thirty six 6-10 week old AG129 mice are divided into six groups of six mice each. All mice are infected with dengue virus as described above (day 0). Group 1 is dosed by oral gavage of 200 μL/mouse with 13 mg/kg of a compound of the invention twice a day (once early in the morning and once late in the afternoon) for three consecutive days starting on day 0 (first dose just before dengue infection). […] Thus, Groups 1 and 2 are dosed with a compound of the invention at 13 mg/kg and 32 mg/kg respectively, and Groups 3 and 4 are dosed with another compound of the invention at 13 mg/kg and 32 mg/kg respectively. A positive control may be used, such as, e.g., (2R,3R,4R,5R)-2-(4-amino-pyrrolo[2,3-d]pyrimidin-7-yl)-3-ethynyl-5-hydroxymethyl-tetrahydrofuran-3,4-diol, dosed by oral gavage of 200 μL/mouse the same way as the previous groups. A further group is treated with only vehicle fluid.
On day 3 post-infection approximately 100 μL blood samples, anti-coagulated with sodium citrate, are taken from the mice by retro-orbital puncture under isoflurane anaesthesia. Plasma is obtained from each blood sample by centrifugation and snap frozen in liquid nitrogen for plaque assay analysis. The collected plasma samples are analyzed by plaque assay as described in Schul et al. Journal of Infectious Diseases 2007; 195:665-74. Cytokines are also analysed as described in Schul et al. Journal of Infectious Diseases 2007; 195:665-74. NS1 protein levels are analysed using a Platelia® kit (BioRad Laboratories). An anti-viral effect is indicated by a reduction in cytokine levels and/or NS1 protein levels.

[4] = 32 mg/kg bid, oral gavage, 3 days, AG129 mice

Compound	bioavailability (in words) [1]	storage properties (in words) [2]	activity in the CFI assay (in words) [3]	EC50 [3]	activity in the HCV replicon assay (in words) (HCV replicon)	EC50 (HCV replicon)	reduction in viremia (TSV01 dengue virus 2; [4])	activity in vivo in a mouse model of dengue virus infection (in words) (TSV01 dengue virus 2)	reduction in viremia (TSV01 dengue virus 2; 25 mg/kg, mouse model of dengue virus infection)
(2R,3R,4R,5R)-2-(4-amino-pyrrolo[2,3-d]pyrimidin-7-yl)-3-ethynyl-5-hydroxymethyl-tetrahydrofuran-3,4-diol salicylate salt	good bioavailability	good storage properties	–	–	–	–	–	–	–
C#C[C@@]1(O)[C@H](OC(=O)[C@@H](N)C(C)C)[C@@H](CO)O[C@H]1n1ccc2c(N)ncnc21 [Compound 3, (S)-2-Amino-3-methyl-butyric acid (2R,3R,4R,5R)-5-(4-amino-pyrrolo[2,3-d]pyrimidin-7-yl)-4-ethynyl-4-hydroxy-2-hydroxymethyl-tetrahydro-furan-3-yl ester]	–	–	exhibit activity	~0.86 µM	exhibit activity	~0.066 µM	about 45 fold	exhibit activity	–
C#C[C@@]1(O)[C@H](OC(=O)C(C)C)[C@@H](COC(=O)C(C)C)O[C@H]1n1cc(C(N)=O)c2c(N)ncnc21 [Compound 10, Isobutyric acid (2R,3R,4R,5R)-5-(4-amino-5-carbamoyl-pyrrolo[2,3-d]pyrimidin-7-yl)-4-ethynyl-4-hydroxy-2-isobutyryloxymethyl-tetrahydro-furan-3-yl ester]	–	–	exhibit activity	~0.44 µM	exhibit activity	~0.035 µM	–	exhibit activity	about 30 fold
C#C[C@@]1(O)[C@H](O)[C@@H](CO)O[C@H]1n1ccc2c(N)ncnc21.C#C[C@@]1(O)[C@H](O)[C@@H](CO)O[C@H]1n1ccc2c(N)ncnc21.O=S(=O)(O)c1cccc2c(S(=O)(=O)O)cccc12 [(2R,3R,4R,5R)-2-(4-amino-pyrrolo[2,3-d]pyrimidin-7-yl)-3-ethynyl-5-hydroxymethyl-tetrahydrofuran-3,4-diol napadisylate 2:1 salt]	good bioavailability	good storage properties	–	–	–	–	–	–	–
C#C[C@@]1(O)[C@H](OC(=O)C(C)C)[C@@H](CO)O[C@H]1n1ccc2c(N)ncnc21 [Compound 4, Isobutyric acid (2R,3R,4R,5R)-5-(4-amino-pyrrolo[2,3-d]pyrimidin-7-yl)-4-ethynyl-4-hydroxy-2-hydroxymethyl-tetrahydro-furan-3-yl ester]	–	–	exhibit activity	~0.318 µM	exhibit activity	–	about 113 fold	exhibit activity	–
